# Assay results published in patent US20030104487A1, “Neuropeptide receptor and uses thereof” (priority 2001, published 2003).
# Legend:
# EBI2 [1] = molecular target: T1, EBI2 (Homo sapiens, UniProt P32249); assay: β-Arrestin assay (GFP-β-arrestin clustering/internalisation); type: cell-based; set-up: expressed in transfected cells; host or cells: HEK 293; settings: HEK 293 cells transiently expressing EBI2 and GFP-β-arrestin; ligand ~500 nM, 30 minutes; confocal microscopy, FIG. 2
# Description: General principle of the assay: Agonist binding to the GPCR activates G-proteins and ultimately results in second messenger cascades to elicit a physiological response. In most cases receptors occupied by agonists undergo rapid phosphorylation by GPCR Kinases (GRKs). This in turn allows β-arrestin to bind to the GPCR preventing any further interaction between the GPCR and G-protein. Internalisation of the GPCR via clathrin coated pits follows as a result of arrestin-clathrin interactions (Krupnick, J. G. and Benovic, J. L. (1998) Annual Review of Pharmacological Toxicology, 38, 289-319). By employing fusion constructs of green fluorescent protein (GFP)-β arrestin, this receptor desensitisation can be visualised using confocal microscopy. In the absence of receptor activation in a transfected cell line, fluorescence associated with the β-arrestin-GFP is evenly distributed throughout the cytoplasm. Upon receptor activation by an agonist, cytosolic β-arrestin-GFP translocates to the cell surface reflecting the interaction with the activated receptor (Evans et al. 2001). […]
# The receptor EBI2 and GFP-β-arrestin mammalian expression constructs were transiently transfected in to HEK 293 cells. […] The cells were then analysed using both confocal microscopy and the Cellomics ArrayScanII methodologies in order to identify internalisation of the ligand receptor GFP-β-arrestin complex. […]
# EBI2 [2] = molecular target: T1, EBI2; assay: Response of EBI2 to CRF-family neuropeptides (test not specified); settings: general statement, no test named
# EBI2 [3] = molecular target: T1, EBI2; assay: Functional assay measuring intracellular calcium mobilisation (FLIPR); type: cell-based; settings: EBI2-expressing cells compared to mock-transfected cells; FIG. 1
# Protocol: 5×10^6 cells of a suitable host cell line, chosen to express a low number of endogenous receptors (e.g. HEK293 or CHO-K1) and engineered to stably express certain Gα proteins (e.g. mouse Gα15 (Wilkie, T. M. et al (1991) Proc. Natl. Acad. Sci. 88, 10049-10053), a chimeric Gqi5/Gqo5 α-subunit, or human Gα16 (Amatruda, TT 3rd et al (1991) Proc. Natl. Acad. Sci. 88, 5587-5591)), were transiently transfected with 7.5 μg of cDNA encoding EBI2 in a suitable mammalian cell expression vector, or vector alone, using Lipofectamine Plus® reagent (Gibco BRL) as per the manufacturer's protocol. […]
# Fluorescence Imaging Plate Reader (FLIPR®) technology was employed as a means to detect activation of EBI2 by various potential GPCR agonists.
# Cells were transfected as described in Example 3. […] The FLIPR® processing involved reading the fluorescence for all samples for 2 minutes; during this time the fluorescence baseline was determined […]. The desired amount of compounds (i.e. potential GPCR agonists) was then automatically transferred to the wells and the fluorescence was continuously monitored for the remainder of the time. […]
# Compounds capable of acting as agonists for the receptor were identified by them causing a transient rise in fluorescence, and therefore in intracellular calcium, in the cells.
# T1 sequence (P32249 whole entry): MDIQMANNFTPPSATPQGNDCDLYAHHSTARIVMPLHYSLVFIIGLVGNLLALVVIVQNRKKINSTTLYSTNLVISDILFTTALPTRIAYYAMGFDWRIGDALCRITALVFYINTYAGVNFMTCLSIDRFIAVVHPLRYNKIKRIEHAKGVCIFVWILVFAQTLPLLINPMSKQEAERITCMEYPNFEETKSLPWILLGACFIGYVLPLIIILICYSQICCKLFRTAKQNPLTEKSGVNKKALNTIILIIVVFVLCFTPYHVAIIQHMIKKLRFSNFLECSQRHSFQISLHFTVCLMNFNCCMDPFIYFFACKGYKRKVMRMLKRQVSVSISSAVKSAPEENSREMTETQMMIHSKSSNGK
Molecule,clustering of GFP-β-arrestin complex on the cell surface (EBI2 [1]),receptor responds to the peptide (EBI2 [2]),fluorescence change over time (transient rise in intracellular calcium) (EBI2 [3])
urotensin I,Clustering of the fluorescent GFP-β-arrestin complex is clearly observed,responds,response of EBI2-expressing cells to urotensin I
CC[C@H](C)[C@H](NC(=O)[C@@H](NC(=O)[C@H](CC(=O)O)NC(=O)[C@H](CC(C)C)NC(=O)[C@H](CC(C)C)NC(=O)[C@H](CC(C)C)NC(=O)[C@H](CCCNC(=N)N)NC(=O)[C@H](CC(N)=O)NC(=O)[C@H](CC(N)=O)NC(=O)[C@H](C)NC(=O)[C@H](C)NC(=O)[C@H](CCC(N)=O)NC(=O)[C@H](CCC(N)=O)NC(=O)[C@H](CCCCN)NC(=O)[C@H](CCC(=O)O)NC(=O)[C@H](CCCCN)NC(=O)[C@H](CCC(=O)O)NC(=O)[C@H](CCC(N)=O)NC(=O)[C@H](CCCCN)NC(=O)[C@H](CCC(=O)O)NC(=O)[C@@H](NC(=O)[C@H](CCC(=O)O)NC(=O)[C@@H](NC(=O)[C@H](CCSC)NC(=O)[C@H](CCCCN)NC(=O)[C@H](CCCNC(=N)N)NC(=O)[C@H](CC(C)C)NC(=O)[C@H](CC(C)C)NC(=O)[C@H](CCC(=O)O)NC(=O)[C@H](CC(C)C)NC(=O)[C@H](CO)NC(=O)[C@H](CC(C)C)NC(=O)[C@H](CC(=O)O)NC(=O)[C@@H](NC(=O)[C@H](CO)NC(=O)[C@@H](NC(=O)[C@@H]1CCCN1C(=O)[C@@H]1CCCN1C(=O)CNC(=O)[C@@H]1CCC(=O)N1)[C@@H](C)CC)[C@@H](C)CC)[C@@H](C)CC)[C@@H](C)CC)[C@@H](C)O)C(N)=O [sauvagine],,responds,
